Measurements published in patent US20140221499A1, “NOVEL RODENT CONTROL AGENTS AND USES THEREOF” (priority 2011, published 2014).

Key:
[1] = molecular target: T1, mouse TAAR3 (Mus musculus, UniProt Q5QD16); experiment: TAAR3 CRE-SEAP reporter gene assay in transfected HEK293 cells; assay type: cell-based
T1 construct: Full Taar coding regions were cloned into pcDNA3.1-(Invitrogen); expressed in transfected cells; host or cells: HEK293
T1 sequence (Q5QD16 1-343): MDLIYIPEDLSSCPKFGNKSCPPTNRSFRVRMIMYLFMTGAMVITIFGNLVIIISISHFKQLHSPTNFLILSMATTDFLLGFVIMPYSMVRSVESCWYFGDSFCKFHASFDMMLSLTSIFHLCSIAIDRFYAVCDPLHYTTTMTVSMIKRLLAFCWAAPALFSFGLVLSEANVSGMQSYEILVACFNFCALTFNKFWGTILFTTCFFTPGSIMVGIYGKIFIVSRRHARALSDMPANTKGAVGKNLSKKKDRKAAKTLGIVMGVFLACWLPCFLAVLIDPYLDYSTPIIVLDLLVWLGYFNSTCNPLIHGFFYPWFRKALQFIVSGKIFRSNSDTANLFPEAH
Experimental: Reporter gene assays were performed on HEK293 cells transfected with mouse TAAR3 and CRE-SEAP.
TAAR functional assays. Reporter gene assays were performed as described (Liberles S D & Buck LB (2006) A second class of chemosensory receptors in the olfactory epithelium. Nature 442(7103):645-650) with the following minor modifications. Test urines were diluted in serum-free media containing penicillin G (100 Units/ml, Invitrogen) and streptomycin sulfate ([…], Invitrogen). SEAP activity is measured as fluorescence resulting from dephosphorylation of a substrate, 4-methylumbelliferyl phosphate. Fluorescence values were obtained using an EnVision plate reader (Perkin Elmer) and are reported directly without normalization. All TAARs, except mouse TAAR3, were expressed as fusion proteins with an N-terminal sequence of bovine rhodopsin (Krautwurst D, Yau K W, & Reed R R (1998) Identification of ligands for olfactory receptors by functional expression of a receptor library. Cell 95(7):917-926).

[2] = molecular target: T2, rTAAR7b (Rattus norvegicus, UniProt Q923X8); experiment: CRE-SEAP reporter gene assay in HEK293 cells transfected with rTAAR7b; assay type: cell-based; set-up: Full Taar coding regions were cloned into pcDNA3.1; expressed in transfected cells; host or cells: HEK293; details: FIG. 11A, rTAAR7b did not work with a 'Rho tag' (unmodified form), EC50 ± s.e.m., 4-parameter Hill equation
T2 sequence (Q923X8 1-358): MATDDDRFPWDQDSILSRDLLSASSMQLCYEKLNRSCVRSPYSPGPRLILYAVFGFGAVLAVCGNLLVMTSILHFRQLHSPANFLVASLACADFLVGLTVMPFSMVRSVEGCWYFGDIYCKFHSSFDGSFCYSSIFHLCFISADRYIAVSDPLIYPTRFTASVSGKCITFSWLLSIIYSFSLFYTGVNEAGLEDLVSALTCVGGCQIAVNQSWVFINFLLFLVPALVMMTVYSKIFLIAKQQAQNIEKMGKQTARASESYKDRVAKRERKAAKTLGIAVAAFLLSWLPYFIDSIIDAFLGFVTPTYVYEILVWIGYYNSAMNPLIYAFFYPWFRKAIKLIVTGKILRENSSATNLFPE
Experimental: FIG. 11 illustrates the dose-dependent responses of TAARs to amines. HEK293 cells were cotransfected with plasmids encoding CRE-SEAP and rTAARs (a) or mTAARs (b), incubated with concentrations of ligands indicated, and assayed for reporter activity (triplicates±s.d.). EC50 values (±s.e.m, bottom right) were calculated using SigmaPlot (Systat Software) and a 4-parameter Hill equation.
The following mixes (10 μM of each indicated compounds) were tested for their ability to activate rat TAARs. Mix 1: butylamine, dibutylamine, hexylamine. Mix 2: 2-aminopentane, isoamylamine, isobutylamine, isopropylamine. Mix 3: N,N-dimethylcyclohexylamine, 1-methylindole, tryptamine, phenylethylamine. Mix 4: indole, 1-methylpyrrolidine, 1-methylpiperidine, pyrrolidine. […]
Full Taar coding regions were cloned into pcDNA3.1-(Invitrogen) with or without a 5′ DNA extension of 69 bp encoding the first 20 amino acids of bovine rhodopsin followed by a cloning linker ([…]). […] Fluorescence was measured on an EnVision plate reader (Perkin Elmer) and SEAP activity graphed as relative fluorescence of a phosphatase substrate.
Here, we set out to identify agonists for additional mouse and rat TAARs. […] Transfected cells were incubated with test chemicals, and phosphatase activity was quantified with a fluorescent substrate as a reporter for TAAR activation. […]

In the case of NCCc1ccccc1 [2-phenylethylamine], the EC50 [1] is reported as ~100 µM and the “reduced sensitivity of TAAR3 compared to TAAR4” value ([1]; TAAR3 vs TAAR4) is reported as 30 fold.
Work on CN(C)C1CCCCC1 [N,N-DIMETHYLCYCLOHEXYLAMINE, N,N-dimethylcyclohexylamine] yielded an EC50 [2] of 33.2 ± 12.8 µM.
